Holding throughout (assay): Greenhouse test, pre-emergence treatment
One experiment relates to KCHSC. The class given is in vivo, Kochia scoparia. The conditions noted are these: pre-emergence. An excerpt:
(§1) The culture containers used were plastic flowerpots containing loamy sand with approximately 3.0% of humus as the substrate. The seeds of the test plants were sown separately for each species.
(§2) For the pre-emergence treatment, the active ingredients, which had been suspended or emulsified in water, were applied directly after sowing by means of finely distributing nozzles. The containers were irrigated gently to promote germination and growth and subsequently covered with transparent plastic hoods until the plants had rooted. This cover caused uniform germination of the test plants, unless this had been impaired by the active ingredients.
(§3) Depending on the species, the plants were kept at 10-25° C. or 20-35° C., respectively.
(§4) The test period extended over 2 to 4 weeks. During this time, the plants were tended, and their response to the individual treatments was evaluated.
(§5) Evaluation was carried out using a scale from 0 to 100. 100 means no emergence of the plants, or complete destruction of at least the aerial moieties, and 0 means no damage, or normal course of growth. A moderate herbicidal activity is given at values of at least 60, a good herbicidal activity is given at values of at least 70, and a very good herbicidal activity is given at values of at least 85.
(§6) The respective stated components a and b, and if appropriate, c were formulated as a 10% by weight strength emulsion concentrate and, with addition of the amount of solvent system, introduced into the spray liquor used for applying the active compound.
(§7) In the examples, the solvent used was water.
(§8) In the examples below, using the method of S. R. Colby (1967) “Calculating synergistic and antagonistic responses of herbicide combinations”, Weeds 15, p. 22ff., the value E, which is expected if the activity of the individual active compounds is only additive, was calculated. E=X+Y−(X·Y/100) where • X=percent activity using active compound a at an application rate A; • Y=percent activity using active compound b at an application rate B; • E=expected activity (in %) by a+b at application rates A+B.
(§9) If the value found experimentally is higher than the value E calculated according to Colby, a synergistic effect is present.

The subject of a further experiment is ALOMY. The class given is in vivo, Alopecurus myosuroides. The conditions noted are these: Alopecurus myosuroides, pre-emergence, 480 h.
Source text: as §1, §2, §3, §4, §5, §6, §7, §8, §9

In another experiment the test system is GALAP. The class given is in vivo, Galium aparine. The conditions noted are these: pre-emergence.
Source text: as §1, §2, §3, §4, §5, §6, §7, §8, §9

The subject of the next experiment is SETFA. The class given is in vivo, Setaria faberi. To be noted: SETFA, use rate 25 g ai/ha, 20 DAT.
Source text: as §1, §2, §3, §4, §5, §6, §7, §8, §9

A further experiment concerns POLCO. The class given is in vivo, Polygonum convolvulus. The conditions noted are these: pre-emergence.
Source text: as §1, §2, §3, §4, §5, §6, §7, §8, §9

The next experiment has as its system GERPU. The class given is in vivo, Geranium pusillum. To be noted: Geranium pusillum, pre-emergence, 480 h.
Source text: as §1, §2, §3, §4, §5, §6, §7, §8, §9

A further experiment concerns SIDRH. The class given is in vivo, Sida rhombifolia. The conditions noted are these: Sida rhombifolia, pre-emergence, 480 h.
Source text: as §1, §2, §3, §4, §5, §6, §7, §8, §9

In another experiment the test system is EPHHL. The class given is in vivo, Euphorbia heterophylla. To be noted: EPHHL, pre-emergence, individual.
Source text: as §1, §2, §3, §4, §5, §6, §7, §8, §9

Another experiment has as its system COMBE. The class given is in vivo, Commelina benghalensis. To be noted: Commelina benghalensis, pre-emergence, 480 h.
Source text: as §1, §2, §3, §4, §5, §6, §7, §8, §9

A further experiment has as its system CENCY. The class given is in vivo. To be noted: 480 h, individual, read-out: observed % activity 20 DAT.
A further experiment has as its system IPOHE. The class given is in vivo, Ipomoea hederacea. The conditions noted are these: Ipomoea hederacea, 480 h, 750 g ai/ha, 20 DAT, read-out: observed % activity.
Source text: as §1, §2, §3, §4, §5, §6, §7, §8, §9

The subject of another experiment is ABUTH. The class given is in vivo, Abutilon theophrasti. The conditions noted are these: Abutilon theophrasti, 480 h.
Source text: as §1, §2, §3, §4, §5, §6, §7, §8, §9

Setting [1] is: 375 g ai/ha, 20 DAT, read-out: observed % activity.
[2] abbreviates: 750 g ai/ha, 20 DAT, read-out: observed % activity.

Values joined by “and” are separate entries in the source; they are usually repeats but may differ in a detail not shown here. Equal values may be shown once. Read-outs that look alike come from different tables or passages of the source.

Take `CCOCN(C(=O)CCl)c1c(C)cccc1CC` [acetochlor]: the inhibition at 125 g/ha in the experiment on KCHSC (Bassia scoparia, 480 h, 125 g ai/ha, 20 DAT, read-out: observed % activity) was found to be 0%; with ALOMY (125 g ai/ha, 20 DAT, read-out: observed % activity), 0%; in the experiment on GALAP (Galium aparine, 480 h, 125 g ai/ha, 20 DAT, read-out: observed % activity) it was 60%.

Consider `O=C(Nc1ccc(F)cc1)c1cccc(Oc2cccc(C(F)(F)F)c2)n1` [Picolinafen, picolinafen], for which the “observed % activity 20 DAT” value in the experiment on SETFA came out at 10%; in the experiment with KCHSC (KCHSC, use rate 50 g ai/ha, 20 DAT), 30%; in the experiment on POLCO (POLCO, use rate 25 g ai/ha, 20 DAT), 0%; in the experiment with POLCO (POLCO, use rate 50 g ai/ha, 20 DAT), 0%.

As for `O=C(O)CNCP(=O)(O)O` [Glyphosate, glyphosate], in the experiment on ALOMY (read-out: observed % activity 20 DAT), the inhibition at 125 g/ha is 0%.

Turning to `CC(C)c1ccc(NC(=O)N(C)C)cc1` [Isoproturon, isoproturon], the inhibition at 375 g/ha with GERPU (setting [1]) was 20%; with SIDRH (setting [1]) it was 0%; in the experiment with COMBE (setting [1]) it was 0%; in the experiment on POLCO (Fallopia convolvulus, 480 h, 375 g ai/ha, 20 DAT, read-out: observed % activity) it was 0%; in the experiment on ABUTH (setting [1]), 20%. Also, the inhibition at 750 g/ha came out at 40% with GERPU (setting [2]); 98% in the experiment with KCHSC (Bassia scoparia, 480 h, 750 g ai/ha, 20 DAT, read-out: observed % activity); 45% in the experiment on COMBE (setting [2]); 25% in the experiment on POLCO (Fallopia convolvulus, 480 h, 750 g ai/ha, 20 DAT, read-out: observed % activity); 40% with IPOHE; 65% in the experiment with ABUTH (setting [2]). For the same molecule, the inhibition at 500 g/ha in the experiment with GERPU (GERPU, individual, use rate 500 g ai/ha, read-out: observed % activity 20 DAT) came out at 0%; in the experiment with SIDRH (SIDRH, individual, use rate 500 g ai/ha, read-out: observed % activity 20 DAT), 40%; in the experiment on KCHSC (Bassia scoparia, 480 h, KCHSC, individual, use rate 500 g ai/ha, read-out: observed % activity 20 DAT), 98%; in the experiment on EPHHL (Euphorbia heterophylla, 480 h, use rate 500 g ai/ha, read-out: observed % activity 20 DAT), 35%; with COMBE (COMBE, individual, use rate 500 g ai/ha, read-out: observed % activity 20 DAT), 10%; in the experiment with CENCY (use rate 500 g ai/ha) it was 30%. The inhibition at 500 g/ha with ABUTH (ABUTH, individual, use rate 500 g ai/ha, read-out: observed % activity 20 DAT) is 15%. Also, the inhibition at 250 g/ha in the experiment with SIDRH (SIDRH, individual, use rate 250 g ai/ha, read-out: observed % activity 20 DAT) came out at 0%; in the experiment with KCHSC (Bassia scoparia, 480 h, KCHSC, individual, use rate 250 g ai/ha, read-out: observed % activity 20 DAT) it was 98%; in the experiment on COMBE (COMBE, individual, use rate 250 g ai/ha, read-out: observed % activity 20 DAT), 0%; in the experiment with CENCY (use rate 250 g ai/ha), 30%; with POLCO (Fallopia convolvulus, 480 h, POLCO, individual, use rate 250 g ai/ha, read-out: observed % activity 20 DAT), 10%; in the experiment with GALAP (Galium aparine, 480 h, GALAP, individual, use rate 250 g ai/ha, read-out: observed % activity 20 DAT) it was 30%. Also, the inhibition at 250 g/ha in the experiment with ABUTH (ABUTH, individual, use rate 250 g ai/ha, read-out: observed % activity 20 DAT) was found to be 50%. Also, the “observed % activity 20 DAT” value is 10% and 25% in the experiment on EPHHL (use rate 250 g ai/ha); 65% and 15% in the experiment on GALAP (GALAP, individual, use rate 500 g ai/ha).

These data come from patent publication US9999222B2, “Herbicidal combination comprising azines” (BASF SE, priority 2014, dated 2018).
